Experimental data from patent publication US20110237436A1, “Hydrate and anhydrous crystal form of the sodium salt of 2-iodo-N-[(4-methoxy-6-methyl-1,3,5-triazin-2-yl)carbamoyl]benzenesulfonamide, process for preparation thereof and use thereof as herbicides and plant growth regulators” (BAYER CROPSCIENCE AG, priority 2010, published 2011).

Columns and labels:
[1] = Stability tests: storage of oil dispersions of the active ingredient; type: physicochemical
Excerpt: The oil dispersions described were produced analogously to DE 19951427.

[2] = Practical testing of suspension formulations; type: physicochemical; settings: effects occur spontaneously or over a longer period
Excerpt: The compound of the formula (I) known, for example, from WO 2009/053058 (compound I-2 in table 1 therein) has herbicidal properties and is suitable for the production of crop protection compositions which can be employed for weed control. […] User-friendly administration forms are, for example, suspension formulations or solid formulations in which the compound of the formula (I) is present in finely ground, solid form. […] There may, for example, be precipitation, crystal growth or solidification, such that the suspension formulation becomes unusable. These effects can occur spontaneously or over a longer period and cannot be foreseen.

[3] = in the course of production of oil dispersions or storage at room temperature, within hours or a few days
[4] = oil dispersion produced analogously to DE 19951427, storage at different temperatures for several weeks

Row | Structure (SMILES) | change in viscosity of the oil dispersions [1, 3] | precipitation or crystallization of the active ingredient in the oil dispersion [1, 3] | physical stability of suspension formulations [2] | change in the viscosity of the oil dispersions [1, 4] | signs of precipitation or crystallization of the active ingredient in the oil dispersion [1, 4]
1 | COc1nc(C)nc(NC(=O)[N-]S(=O)(=O)c2ccccc2I)n1.[Na+] [amorphous sodium salt, sodium salt of 2-iodo-N-[(4-methoxy-6-methyl-1,3,5-triazin-2-yl)carbamoyl]benzenesulfonamide] | significant rises in viscosity, up to and including complete solidification | precipitation or crystallization of the active ingredient | physically unstable formulations | – | –
2 | COc1nc(C)nc(NC(=O)[N-]S(=O)(=O)c2ccccc2I)n1.[Na+] [hydrate, hydrate of the sodium salt of 2-iodo-N-[(4-methoxy-6-methyl-1,3,5-triazin-2-yl)carbamoyl]benzenesulfonamide] | – | – | – | Nor was any change found in the viscosity | did not exhibit any signs of precipitation or crystallization of the active ingredient
